Entries after “also recorded” stand apart in the source; their conditions may differ.
How the values were obtained:
[1] = tested on: gastric adenocarcinoma (AGS); test: SRB cell growth inhibition assay, AGS; type: cell-based, human; details: for GI50: AGS, SRB assay, 48 h incubation, mean ± SD; for Selectivity for AGS among the cell lines used: comparison of GI50 values
Procedure: (§1) The antitumor potential of the di(hetero)arylamines 2a–2o was evaluated using the sulforhodamine B (SRB) assay to establish some structure–activity relationships. Four human tumor cell lines (acquired from Leibniz-Institut DSMZ) were used: gastric adenocarcinoma (AGS), colorectal adenocarcinoma (CaCo-2), breast adenocarcinoma (MCF7), and non-small-cell lung cancer (NCI-H460), as well as a non-tumor cell line from African green monkey kidney (Vero) to evaluate the toxicity of the compounds. Ellipticine was used as a positive control, and the results are presented in GI50 values (µM) (Table 2).
(§2) Each cell line was prepared in 96-well plates, at the required density (1.0 × 10^4 cells/well) and incubated for 24 h to achieve cell attachment. The solutions of the compounds were applied and incubated for another 48 h. GI50 values (µM) corresponding to the compound concentration that inhibited 50% of cell growth were determined using the sulforhodamine B assay. Two separate tests were carried out for each compound, in duplicate, with the effects expressed as mean values and standard deviation (SD). Ellipticine was used as a positive control.

[2] = tested on: colorectal adenocarcinoma (CaCo-2); test: SRB cell growth inhibition assay, CaCo-2; type: cell-based, human; details: for GI50: CaCo-2, SRB assay, 48 h incubation, mean ± SD
Procedure: as §1, §2

[3] = tested on: breast carcinoma (MCF7); test: SRB cell growth inhibition assay, MCF7; type: cell-based, human; details: MCF-7, SRB assay, 48 h incubation, mean ± SD
Procedure: as §1, §2

[4] = tested on: non-small-cell lung carcinoma (NCI-H460); test: SRB cell growth inhibition assay, NCI-H460; type: cell-based, human; details: 48 h incubation, mean ± SD
Procedure: as §1, §2

[5] = SRB cell growth inhibition assay, non-tumor Vero cells (toxicity); type: cell-based; details: African green monkey, Vero cells (non-tumor kidney cell line), 48 h incubation, mean ± SD
Procedure: as §1, §2

[6] = tested on: AGS cells; test: Flow cytometric cell cycle analysis (PI staining); type: cell-based, human; details: at GI50 concentration, 72 h, vs blank
Procedure: This assay is based on the measurement of the DNA content in the PI-labeled nuclei. […] Cell cycle analysis was performed using propidium iodide (PI) staining and flow cytometry. This assay is established on the measurement of the DNA content of nuclei labeled with PI. Following this, the cells were staining according to the protocol PI/RNASE Solution (Immunostep, Spain, Salamanca). The harvested cells corresponding to 2 × 10^5 to 1 × 10^6 cells, were centrifuged for 5 min at 300g, and the supernatant was removed. The cells were fixed and added to 200 µL of 70% ethanol and left in the ethanol at 4 °C for 30 min. Following this, the cells were washed once in 2 mL phosphate-buffered saline (PBS) and centrifuged for 5 min at 300g and resuspended in 500 μL of PI solution (PI/RNASE) and incubated in the dark, at room temperature, for 15 min. Cell cycle phase distribution was evaluated using an Accuri C6 flow cytometer (BD Biosciences, San Jose, CA, USA). The DNA content of at least 20,000 cells was counted per sample, and the percentage of cells in different phases (G0/G1, S, and G2/M phases) of the cell cycle was evaluated using BD Accuri C6 software (BD Biosciences, San Jose, CA, USA). Ellipticine was used as a positive control at its GI50 concentration for AGS cell line.

[7] = tested on: AGS cells; test: Flow cytometric apoptosis detection (FITC Annexin V/PI); type: cell-based, human; details: at GI50 concentration, 72 h; for Cell death in apoptosis assay: vs blank
Procedure: Apoptosis induction was performed using the Fluorescein Isothiocyanate (FITC) Annexin V Apoptosis Kit (BD Biosciences, San Jose, CA, USA), and measured by flow cytometry for compounds 2b, 2f, and 2g (Figure 3). FITC Annexin V staining was used to determine the percentage of cells within a population that are actively undergoing apoptosis. […] Apoptosis detection was performed using the Fluorescein Isothiocyanate (FITC) Annexin V Apoptosis Kit (BD Biosciences, San Jose, CA, USA) and flow cytometry. FITC Annexin V staining is used to determine the percentage of cells within a population that are actively undergoing apoptosis. The cells were washed twice with PBS and resuspended cells in 1× Binding Buffer (10 mM HEPES/NaOH, pH 7.4, 140 mM NaCl, 2.5 mM CaCl2) at a concentration of 1 × 10^6 cells/mL. Following this, 100 μL of the solution (1 × 10^5 cells) was transferred to a 5 mL culture tube and 5 μL of FITC Annexin V (BD Biosciences, San Jose, CA, USA) and 5 μL of PI (BD Biosciences, San Jose, CA, USA) were added to each tube, and they were incubated in the dark, at room temperature, for 15 min. Finally, 400 μL of 1× Binding Buffer was added to each tube. Next, 30,000 cells were acquired using an Accuri C6 flow cytometer (BD Biosciences, San Jose, CA, USA), and the percentage of cell distribution was evaluated with Accuri C6 software (BD Biosciences, San Jose, CA, USA). Ellipticine was used as a positive control at its GI50 concentration for AGS cell line.

Row | SMILES | GI50 ([1]; Homo sapiens, 48 h) | GI50 ([2]; Homo sapiens, Caco-2, 48 h) | GI50 ([3]; Homo sapiens, MCF7, 48 h) | GI50 ([4]; Homo sapiens, NCI-H460, 48 h) | melting point | GI50 at 48 h [5] | further results
1 | COC(=O)c1sc2nccnc2c1Nc1ccccc1OC [2b, Methyl 7-[(2-Methoxyphenyl)amino]thieno[2,3-b]pyrazine-6-carboxylate] | 9.8 ± 0.2 µM | 36 ± 2 µM | 127 ± 9 µM | 45 ± 1 µM |  | 21.29 ± 0.03 µM | Selectivity for AGS among the cell lines used [1]: selective for this cell line; Effect on G0/G1 phases of AGS cell cycle [6]: cell cycle arrest in G0/G1 phases, although this result was not statistically significant; Effect on G2/M phase of AGS cell cycle [6]: did not present any difference in the percentage of cells compared to the blank; High number of cells in apoptosis (expected from GI50 values) [7]: not verified; Cell death in apoptosis assay [7]: moderated cell death compared to the blank
2 | COC(=O)c1sc2nccnc2c1Nc1ccc(OC)cc1OC [2e, Methyl 7-[(2,4-Dimethoxyphenyl)amino]thieno[2,3-b]pyrazine-6-carboxylate] | 34 ± 2 µM | 56 ± 2 µM | 140 ± 7 µM | 200 ± 3 µM | 159 to 161 °C | 138 ± 8 µM | 
3 | COC(=O)c1sc2nccnc2c1Nc1ccc(OC)c(OC)c1 [2f, Methyl 7-[(3,4-Dimethoxyphenyl)amino]thieno[2,3-b]pyrazine-6-carboxylate] | < 10 µM | < 10 µM | 87 ± 1 µM | 41 ± 3 µM |  | 53 ± 3 µM | GI50 [1]: 9.2 ± 0.2 µM; GI50 [2]: 8 ± 1 µM; Effect on G0/G1 phases of AGS cell cycle [6]: cell cycle arrest in G0/G1 phases, although this result was not statistically significant; Effect on G2/M phase of AGS cell cycle [6]: did not present any difference in the percentage of cells compared to the blank; High number of cells in apoptosis (expected from GI50 values) [7]: not verified; Cell death in apoptosis assay [7]: moderated cell death compared to the blank
4 | COC(=O)c1sc2nccnc2c1Nc1cc(OC)cc(OC)c1 [2g, Methyl 7-[(3,5-Dimethoxyphenyl)amino]thieno[2,3-b]pyrazine-6-carboxylate] | 7.8 ± 0.2 µM | 38 ± 4 µM | 182 ± 5 µM | 120 ± 10 µM |  | 144 ± 10 µM | Selectivity for AGS among the cell lines used [1]: selective for this cell line; AGS cell cycle profile histogram [6]: high percentage of cell death and an atypical distribution on cell cycle profile; High number of cells in apoptosis (expected from GI50 values) [7]: not verified; Apoptotic cells ([7]; Figure 4): 19,6%; Dead cells ([7]; Figure 4): 60,4%; Live Cells ([7]; Figure 4): 19,0%; Cell death in apoptosis assay [7]: large amount of cell death
5 | COC(=O)c1sc2nccnc2c1Nc1cc(OC)c(OC)c(OC)c1 [2h, Methyl 7-[(3,4,5-Trimethoxyphenyl)amino]thieno[2,3-b]pyrazine-6-carboxylate] | 33 ± 3 µM | 9.2 ± 0.3 µM | 105.7 ± 0.5 µM | 77 ± 6 µM |  | 53 ± 5 µM | 
6 | COC(=O)c1sc2nccnc2c1-n1cccc1 [2m, Methyl 7-(1H-pyrrol-1-yl)thieno[2,3-b]pyrazine-6-carboxylate] | 88.6 ± 0.1 µM | 43.3 ± 0.3 µM | 128 ± 2 µM | 49 ± 2 µM | 166 to 168 °C | 140 ± 12 µM | 
7 | Cc1c2ccncc2c(C)c2c1[nH]c1ccccc12 [Ellipticine, reference compound] | ≤ 1 µM | ≤ 1 µM | ≤ 1 µM | ≤ 1 µM |  | 0.6 ± 0.1 µM | GI50 [1]: 0.9 ± 0.1 µM; GI50 [2]: 0.8 ± 0.1 µM; GI50 [3]: 1.02 ± 0.004 µM; GI50 [4]: 1.01 ± 0.01 µM

Continued, in another order:

Row | GI50 ([1]; Homo sapiens, 48 h) | GI50 ([2]; Homo sapiens, Caco-2, 48 h) | GI50 ([3]; Homo sapiens, MCF7, 48 h) | GI50 ([4]; Homo sapiens, NCI-H460, 48 h) | melting point | SMILES | GI50 at 48 h [5] | further results
8 | 95 ± 9 µM | 38 ± 2 µM | 97 ± 2 µM | 122 ± 9 µM | 154 to 156 °C | COC(=O)c1sc2nccnc2c1Nc1ccccc1 [2a, Methyl 7-(Phenylamino)thieno[2,3-b]pyrazine-6-carboxylate] | 120 ± 6 µM | 
9 | 98 ± 3 µM | 56 ± 1 µM | 160 ± 6 µM | 96 ± 1 µM | 171 to 173 °C | COC(=O)c1sc2nccnc2c1Nc1cccc(OC)c1 [2c, Methyl 7-[(3-Methoxyphenyl)amino]thieno[2,3-b]pyrazine-6-carboxylate] | 94 ± 3 µM | 
10 | 59 ± 3 µM | 60 ± 2 µM | 136 ± 3 µM | 52.8 ± 0.3 µM |  | COC(=O)c1sc2nccnc2c1Nc1ccc(OC)cc1 [2d, Methyl 7-[(4-Methoxyphenyl)amino]thieno[2,3-b]pyrazine-6-carboxylate] | 127 ± 3 µM | 
11 | 48 ± 4 µM | 88.4 ± 0.2 µM | 128 ± 5 µM | 76 ± 1 µM |  | COC(=O)c1sc2nccnc2c1Nc1ccccc1F [2i, Methyl 7-[(2-Fluorophenyl)amino]thieno[2,3-b]pyrazine-6-carboxylate] | 117 ± 10 µM | 
12 | 86 ± 6 µM | 142 ± 11 µM | 96 ± 6 µM | 69 ± 7 µM |  | COC(=O)c1sc2nccnc2c1Nc1cccc(F)c1 [2j, Methyl 7-[(3-Fluorophenyl)amino]thieno[2,3-b]pyrazine-6-carboxylate] | 149 ± 4 µM | 
13 | 118 ± 2 µM | 62 ± 4 µM | 160 ± 7 µM | 84 ± 2 µM | 171 to 173 °C | COC(=O)c1sc2nccnc2c1Nc1ccc(F)cc1 [2k, Methyl 7-[(4-Fluorophenyl)amino]thieno[2,3-b]pyrazine-6-carboxylate] | 149 ± 7 µM | 
14 | 63.3 ± 0.1 µM | 45 ± 3 µM | 116 ± 5 µM | 122 ± 11 µM | 150 to 152 °C | COC(=O)c1sc2nccnc2c1Nc1cccnc1 [2l, Methyl 7-[(Pyridin-3-yl)amino]thieno[2,3-b]pyrazine-6-carboxylate] | 110 ± 5 µM | 
15 | 39 ± 3 µM | 10.9 ± 0.4 µM | 103 ± 2 µM | 105 ± 8 µM | 214 to 216 °C | COC(=O)c1sc2nccnc2c1Nc1ccc(C#N)cc1 [2n, Methyl 7-[(4-Cyanophenyl)amino]thieno[2,3-b]pyrazine-6-carboxylate] | 48 ± 4 µM | Selectivity for CaCo-2 among the cell lines used ([2]; comparison of GI50 values): selective for this cell line; also recorded: selective against CaCo-2 cell line
16 | 55 ± 0.3 µM | 31.2 ± 0.2 µM | 103 ± 3 µM | 43 ± 2 µM | 225 to 227 °C | COC(=O)c1sc2nccnc2c1Nc1ccccc1[N+](=O)[O-] [2o, Methyl 7-[(2-Nitrophenyl)amino]thieno[2,3-b]pyrazine-6-carboxylate] | 92 ± 8 µM | 

— article PMC8400120, “Synthesis of Novel Methyl 7-[(Hetero)arylamino]thieno[2,3-b]pyrazine-6-carboxylates and Antitumor Activity Evaluation: Effects in Human Tumor Cells Growth, Cell Cycle Analysis, Apoptosis and Toxicity in Non-Tumor Cells” (Molecules, 2021)
